Data as given in patent publication US11339165B2, “Pyrazolopyrimidines having activity against the respiratory syncytial virus (RSV)” (priority 2017, dated 2022).

Experiments:
in vitro = details: human, TOX HELA CC50 (μM)
rgRSV224 virus = test: Antiviral activity: rgRSV224 (GFP) replication in HeLa cells; format: cell-based, respiratory syncytial virus (RSV); details: human respiratory syncytial virus, HeLa, 72 h, read-out: RSV HELA EC50 (μM), rgRSV224 virus (MOI=1), HeLa cells, GFP expression three days post-virus exposure

**Q.** Which results are given for `C[C@@H]1c2ccccc2CCN1C(=O)c1cc(C2CC2)n2nc(-c3ccc(N4C[C@H](C(N)=O)C[C@@H]4C)cc3F)cc2n1` (single isomer, unassigned) [Compound 33, (3*R,5*S)-1-(4-{7-cyclopropyl-5-[(1R)-1-methyl-1,2,3,4-tetrahydroisoquinoline-2-carbonyl]pyrazolo[1,5-a]pyrimidin-2-yl}-3-fluorophenyl)-5-methylpyrrolidine-3-carboxamide]?
**A.** melting point: 292.7 °C; CC50 at 3 days (in vitro): 34.5 µM; EC50 (rgRSV224 virus): 0.043 µM

**Q.** For `C[C@@H]1c2ccccc2CCN1C(=O)c1cc(C2CC2)n2nc(-c3cnc(N4CC[C@H](C(N)=O)C4)cc3F)cc2n1` [Compound 52, (3S)-1-(5-{7-Cyclopropyl-5-[(1R)-1-methyl-1,2,3,4-tetrahydroisoquinoline-2-carbonyl]-pyrazolo[1,5-a]pyrimidin-2-yl}-4-fluoropyridin-2-yl)pyrrolidine-3-carboxamide], which melting point is on record?
**A.** 246.17 °C

**Q.** And the CC50 at 3 days (in vitro)?
**A.** 41.3 µM

**Q.** What about the EC50 (rgRSV224 virus) of the same compound?
**A.** 0.014 µM

**Q.** What does the source list for `C[C@@H]1c2ccccc2CCN1C(=O)c1cc(C2CC2)n2nc(-c3ccc(N4CCCC(O)C4)cc3F)cc2n1` (stereo partly drawn) [Compound 75, 1-(4-{7-Cyclopropyl-5-[(1R)-1-methyl-1,2,3,4-tetrahydroisoquinoline-2-carbonyl]-pyrazolo[1,5-a]pyrimidin-2-yl}-3-fluorophenyl)piperidin-3-ol]?
**A.** melting point: 197.51 °C; CC50 at 3 days (in vitro): > 100 µM; EC50 (rgRSV224 virus): 0.076 µM

**Q.** What does the source list for `C[C@@H]1c2ccccc2CCN1C(=O)c1cc(C2CC2)n2nc(-c3ccc(N4CC[C@H](C(N)=O)[C@H]4C)cc3F)cc2n1` (single isomer, unassigned) [Compound 81, (2*R,3*S)-1-(4-{7-Cyclopropyl-5-[(1R)-1-methyl-1,2,3,4-tetrahydroisoquinoline-2-carbonyl]pyrazolo[1,5-a]pyrimidin-2-yl}-3-fluorophenyl)-2-methylpyrrolidine-3-carboxamide]?
**A.** melting point: 271.19 °C; CC50 at 3 days (in vitro): 38.4 µM; EC50 (rgRSV224 virus): 0.099 µM

**Q.** What does the source list for `CNC(=O)CC1CN(c2ccc(-c3cc4nc(C(=O)N5CCc6ccccc6[C@H]5C)cc(C5CC5)n4n3)c(F)c2)C1` [Compound 66, 2-[1-(4-{7-Cyclopropyl-5-[(1R)-1-methyl-1,2,3,4-tetrahydroisoquinoline-2-carbonyl]-pyrazolo[1,5-a]pyrimidin-2-yl}-3-fluorophenyl)azetidin-3-yl]-N-methylacetamide]?
**A.** melting point: 143.13 °C; CC50 at 3 days (in vitro): 36.4 µM; EC50 (rgRSV224 virus): 0.04 µM

**Q.** For `C[C@@H]1c2ccccc2CCN1C(=O)c1cc(C2CC2)n2nc(-c3ccc(N4CCC(O)CC4)cc3F)cc2n1` [Compound 74, 1-(4-{7-Cyclopropyl-5-[(1R)-1-methyl-1,2,3,4-tetrahydroisoquinoline-2-carbonyl]-pyrazolo[1,5-a]pyrimidin-2-yl}-3-fluorophenyl)piperidin-4-ol], which melting point is on record?
**A.** 144.01 °C

**Q.** What about the CC50 at 3 days (in vitro) of the same compound?
**A.** 48.1 µM

**Q.** And the EC50 (rgRSV224 virus)?
**A.** 0.076 µM

**Q.** What does the source list for `C[C@@H]1c2ccccc2CCN1C(=O)c1cc(C2CC2)n2nc(-c3cc(F)c(N4CC[C@H](C(N)=O)C4)cc3F)cc2n1` [Compound 55, (3S)-1-(4-{7-Cyclopropyl-5-[(1R)-1-methyl-1,2,3,4-tetrahydroisoquinoline-2-carbonyl]-pyrazolo[1,5-a]pyrimidin-2-yl}-2,5-difluorophenyl)pyrrolidine-3-carboxamide]?
**A.** melting point: 253.3 °C; CC50 at 3 days (in vitro): > 100 µM; EC50 (rgRSV224 virus): 0.016 µM

**Q.** For `C[C@@H]1c2ccccc2CCN1C(=O)c1cc(C2CC2)n2nc(-c3ccc(N4CC(O)C4)cc3F)cc2n1` [Compound 67, 1-(4-{7-Cyclopropyl-5-[(1R)-1-methyl-1,2,3,4-tetrahydroisoquinoline-2-carbonyl]-pyrazolo[1,5-a]pyrimidin-2-yl}-3-fluorophenyl)azetidin-3-ol], which melting point is on record?
**A.** 205.81 °C

**Q.** What about the CC50 at 3 days (in vitro) of the same compound?
**A.** 36.5 µM

**Q.** What about the EC50 (rgRSV224 virus) of the same compound?
**A.** 0.03 µM

**Q.** For `C[C@@H]1c2ccsc2CCN1C(=O)c1cc(C2CC2)n2nc(-c3ccc(N4CC[C@@H](CC(N)=O)C4)cc3F)cc2n1` (single isomer, unassigned) [Compound 43, 2-[(3S)-1-(4-{7-Cyclopropyl-5-[(4*R)-4-methyl-4,5,6,7-tetrahydro-thieno[3,2-c]pyridine-5-carbonyl]pyrazolo[1,5-a]pyrimidin-2-yl}-3-fluorophenyl)pyrrolidin-3-yl]acetamide], which melting point is on record?
**A.** 214.36 °C

**Q.** And the CC50 at 3 days (in vitro)?
**A.** 29.8 µM

**Q.** And the EC50 (rgRSV224 virus)?
**A.** 0.017 µM

**Q.** Which melting point does the source give for `CC(=O)N[C@@H]1CCN(c2ccc(-c3cc4nc(C(=O)N5CCc6ccccc6[C@H]5C)cc(C5CC5)n4n3)c(F)c2)C1` [Compound 7, N-[(3R)-1-(4-{7-Cyclopropyl-5-[(1R)-1-methyl-1,2,3,4-tetrahydroisoquinoline-2-carbonyl]pyrazolo[1,5-a]pyrimidin-2-yl}-3-fluorophenyl)pyrrolidin-3-yl]acetamide] here?
**A.** 189 °C

**Q.** What about the CC50 at 3 days (in vitro) of the same compound?
**A.** 71.5 µM

**Q.** And the EC50 (rgRSV224 virus)?
**A.** 0.037 µM

**Q.** With `C[C@@H]1c2ccccc2CCN1C(=O)c1cc(C2CC2)n2nc(-c3ccc(N4CC[C@@H](NS(C)(=O)=O)C4)cc3F)cc2n1` [Compound 11, N-[(3R)-1-(4-{7-Cyclopropyl-5-[(1R)-1-methyl-1,2,3,4-tetrahydroisoquinoline-2-carbonyl]pyrazolo[1,5-a]pyrimidin-2-yl}-3-fluorophenyl)pyrrolidin-3-yl]methane-sulfonamide] as the compound, how does the melting point read?
**A.** 159.35 °C

**Q.** And the CC50 at 3 days (in vitro)?
**A.** > 100 µM

**Q.** What about the EC50 (rgRSV224 virus) of the same compound?
**A.** 0.044 µM

**Q.** Which melting point does the source give for `C[C@@H]1c2ccccc2CCN1C(=O)c1cc(C2CC2)n2nc(-c3ccc(N4CC[C@@H](S(C)(=O)=O)C4)cc3F)cc2n1` [Compound 17, (1R)-2-(7-Cyclopropyl-2-{2-fluoro-4-[(3R)-3-methanesulfonylpyrrolidin-1-yl]phenyl}-pyrazolo[1,5-a]pyrimidine-5-carbonyl)-1-methyl-1,2,3,4-tetrahydroisoquinoline] here?
**A.** 258.48 °C

**Q.** What about the CC50 at 3 days (in vitro) of the same compound?
**A.** > 100 µM

**Q.** What about the EC50 (rgRSV224 virus) of the same compound?
**A.** 0.05 µM

**Q.** For `C[C@@H]1c2ccccc2CCN1C(=O)c1cc(C2CC2)n2nc(-c3ccc(N4CC[C@H](C(N)=O)C4)nc3F)cc2n1` [Compound 49, (3S)-1-(5-{7-Cyclopropyl-5-[(1R)-1-methyl-1,2,3,4-tetrahydroisoquinoline-2-carbonyl]-pyrazolo[1,5-a]pyrimidin-2-yl}-6-fluoropyridin-2-yl)pyrrolidine-3-carboxamide], which melting point is on record?
**A.** 239.19 °C

**Q.** What about the CC50 at 3 days (in vitro) of the same compound?
**A.** 32.3 µM

**Q.** What about the EC50 (rgRSV224 virus) of the same compound?
**A.** 0.024 µM

**Q.** With `C[C@@H]1c2ccccc2CCN1C(=O)c1cc(C2CC2)n2nc(-c3ccc(N4CCC(S(N)(=O)=O)C4)cc3F)cc2n1` (stereo partly drawn) [Compound 19, 1-(4-{7-Cyclopropyl-5-[(1R)-1-methyl-1,2,3,4-tetrahydroisoquinoline-2-carbonyl]-pyrazolo[1,5-a]pyrimidin-2-yl}-3-fluorophenyl)pyrrolidine-3-sulfonamide] as the compound, how does the melting point read?
**A.** 308.63 °C

**Q.** What about the CC50 at 3 days (in vitro) of the same compound?
**A.** 72.3 µM

**Q.** What about the EC50 (rgRSV224 virus) of the same compound?
**A.** 0.041 µM

**Q.** What does the source list for `C[C@@H]1c2ccccc2CCN1C(=O)c1cc(C2CC2)n2nc(-c3ccc(N4CC[C@@H](S(C)(=N)=O)C4)cc3F)cc2n1` (stereo partly drawn) [Compound 79, [(3R)-1-(4-{7-Cyclopropyl-5-[(1R)-1-methyl-1,2,3,4-tetrahydroisoquinoline-2-carbonyl]-pyrazolo[1,5-a]pyrimidin-2-yl}-3-fluorophenyl)pyrrolidin-3-yl](imino)methyl-λ^6-sulfanone]?
**A.** melting point: 285.54 °C; CC50 at 3 days (in vitro): 13.3 µM; EC50 (rgRSV224 virus): 0.476 µM

**Q.** Which melting point does the source give for `C[C@@H]1c2ccsc2CCN1C(=O)c1cc(C2CC2)n2nc(-c3ccc(N4CC[C@H](CC(N)=O)C4)cc3F)cc2n1` (single isomer, unassigned) [Compound 42, 2-[(3R)-1-(4-{7-Cyclopropyl-5-[(4*R)-4-methyl-4,5,6,7-tetrahydro-thieno[3,2-c]pyridine-5-carbonyl]pyrazolo[1,5-a]pyrimidin-2-yl}-3-fluorophenyl)pyrrolidin-3-yl]acetamide] here?
**A.** 206.84 °C

**Q.** And the CC50 at 3 days (in vitro)?
**A.** 28.9 µM

**Q.** What about the EC50 (rgRSV224 virus) of the same compound?
**A.** 0.025 µM

**Q.** Which results are given for `C[C@@H]1c2ccccc2CCN1C(=O)c1cc(C2CC2)n2nc(-c3ccc(N4CC[C@H](C(N)=O)[C@@H]4C)cc3F)cc2n1` (single isomer, unassigned) [Compound 83, (2*S,3*S)-1-(4-{7-Cyclopropyl-5-[(1R)-1-methyl-1,2,3,4-tetrahydroisoquinoline-2-carbonyl]pyrazolo[1,5-a]pyrimidin-2-yl}-3-fluorophenyl)-2-methylpyrrolidine-3-carboxamide]?
**A.** melting point: 235.56 °C; CC50 at 3 days (in vitro): 42.4 µM; EC50 (rgRSV224 virus): 0.044 µM

**Q.** For `C[C@@H]1c2ccccc2CCN1C(=O)c1cc(C2CC2)n2nc(-c3ccc(N4C[C@H](C(N)=O)C[C@H]4C)cc3F)cc2n1` (single isomer, unassigned) [Compound 32, (3*R,5*R)-1-(4-{7-cyclopropyl-5-[(1R)-1-methyl-1,2,3,4-tetrahydroisoquinoline-2-carbonyl]pyrazolo[1,5-a]pyrimidin-2-yl}-3-fluorophenyl)-5-methylpyrrolidine-3-carboxamide], which melting point is on record?
**A.** 297.57 °C

**Q.** And the CC50 at 3 days (in vitro)?
**A.** 32.1 µM

**Q.** What about the EC50 (rgRSV224 virus) of the same compound?
**A.** 0.06 µM

**Q.** With `C[C@@H]1c2ccccc2CCN1C(=O)c1cc(C2CC2)n2nc(-c3ccc(N4CC[C@H](C(N)=O)C4)cc3F)cc2n1` [Compound 36, (3S)-1-(4-{7-Cyclopropyl-5-[(1R)-1-methyl-1,2,3,4-tetrahydroisoquinoline-2-carbonyl]pyrazolo[1,5-a]pyrimidin-2-yl}-3-fluorophenyl)pyrrolidine-3-carboxamide] as the compound, how does the melting point read?
**A.** 237.7 °C

**Q.** And the CC50 at 3 days (in vitro)?
**A.** 29.3 µM

**Q.** And the EC50 (rgRSV224 virus)?
**A.** 0.012 µM

**Q.** Which melting point does the source give for `C[C@@H]1c2ccccc2CCN1C(=O)c1cc(-c2ccccn2)n2nc(-c3ccc(N4CC[C@H](C(N)=O)C4)cc3F)cc2n1` [Compound 84, (3S)-1-(3-Fluoro-4-{5-[(1R)-1-methyl-1,2,3,4-tetrahydroisoquinoline-2-carbonyl]-7-(pyridin-2-yl)pyrazolo[1,5-a]pyrimidin-2-yl}phenyl)pyrrolidine-3-carboxamide] here?
**A.** 252.18 °C

**Q.** And the CC50 at 3 days (in vitro)?
**A.** 19 µM

**Q.** What about the EC50 (rgRSV224 virus) of the same compound?
**A.** 0.006 µM
